Columns and labels:
[1] = test system: sugar beet; assay: Test B pre/postemergence sugar beet; format: in vivo, Beta vulgaris
In short: (§1)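 Herbicidal effect was estimated by eye on a ten-point control scale after plants spent twelve to sixteen days in a greenhouse following soil or foliar treatment. Foliar sprays targeted plants at one to four leaves; all doses were formulated in a non-phytotoxic solvent with surfactant.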

[2] = test system: duck salad; assay: Test B flood test duck salad; format: in vivo, Heteranthera limosa
In short: (§2)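 Each value is a visual injury score relative to controls, with 10 meaning complete control and 0 no effect. Evaluation took place twelve to sixteen days after the 2-leaf-stage plants were treated and kept in the greenhouse.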

[3] = test system: wild oat; assay: Test B pre/postemergence wild oat; format: in vivo, Avena fatua
In short: as §1

[4] = test system: blackgrass; assay: Test B pre/postemergence blackgrass; format: in vivo, Alopecurus myosuroides
In short: as §1

[5] = test system: bedstraw; assay: Test B pre/postemergence bedstraw; format: in vivo, Galium aparine
In short: as §1

[6] = test system: smallflower flatsedge; assay: Test B flood test smallflower flatsedge; format: in vivo, Cyperus difformis
In short: as §2

[7] = test system: giant foxtail; assay: Test B pre/postemergence giant foxtail; format: in vivo, Setaria faberii
In short: as §1

[8] = test system: corn; assay: Test B pre/postemergence corn; format: in vivo, Zea mays
In short: as §1

[9] = test system: soybean; assay: Test B pre/postemergence soybean; format: in vivo, Glycine max
In short: as §1

[10] = test system: pigweed; assay: Test B pre/postemergence pigweed; format: in vivo, Amaranthus retroflexus
In short: as §1

[11] = test system: crabgrass; assay: Test B pre/postemergence crabgrass; format: in vivo, Digitaria sanguinalis
In short: as §1

[12] = test system: cocklebur; assay: Test B pre/postemergence cocklebur; format: in vivo, Xanthium strumarium
In short: as §1

[13] = test system: surinam grass; assay: Test B pre/postemergence surinam grass; format: in vivo, Brachiaria decumbens
In short: as §1

[14] = test system: purple nutsedge; assay: Test B pre/postemergence purple nutsedge; format: in vivo, Cyperus rotundus
In short: as §1

[15] = test system: morningglory; assay: Test B pre/postemergence morningglory; format: in vivo, Ipomoea hederacea
In short: as §1

[16] = Postemergence, Rate 62 g/ha, scale of 0 to 10, 0 is no effect, 10 is complete control
[17] = Postemergence, Rate 500 g/ha, scale 0 to 10, 0 is no effect, 10 is complete control
[18] = Preemergence, Rate 62 g/ha, scale 0 to 10 (0 no effect, 10 complete control)
[19] = Preemergence, Rate 125 g/ha, scale 0 to 10, 0 is no effect, 10 is complete control
[20] = Preemergence, Rate 500 g/ha, scale of 0 to 10 where 0 is no effect and 10 is complete control
[21] = Rate 250 g/ha, Postemergence, scale of 0 to 10 where 0 is no effect and 10 is complete control
[22] = Rate 62 g/ha, flood test species, Pre-emergence, visual evaluation after twelve to sixteen days
[23] = Rate 125 g/ha, under heading Pre-emergence, flood test species, visual evaluation after twelve to sixteen days
[24] = Rate 250 g/ha, Pre-emergence (flood test species), scale 0 to 10, 0 is no effect, 10 is complete control
[25] = Rate 500 g/ha, Pre-emergence section of Table B, 0 to 10 scale (0 no effect, 10 complete control)
[26] = Postemergence, Rate 125 g/ha, scale 0 to 10, 0 is no effect, 10 is complete control

Compound: CCC=CCn1c(=O)on(C(=O)N(c2ccc(Cl)cc2)C(C)C)c1=O [Compound 552]
- Sugarbeets plant response rating [1, 16]: 0
- Plant response rating, Sugarbeets [1, 17]: 7
- Sugarbeets plant response rating [1, 18]: 0
- Sugarbeets plant response rating [1, 19]: 0
- Sugarbeets plant response rating (0 to 10 scale) ([1]; Preemergence, Rate 250 g/ha): 0
- Sugarbeets plant response rating [1, 20]: 5
- Plant response rating, Sugarbeets [1, 21]: 3
- Plant response rating, Ducksalad (0 to 10 scale, 0 is no effect, 10 is complete control) [2, 22]: 0
- Ducksalad plant response rating (0 to 10 scale, 0 is no effect, 10 is complete control) [2, 23]: 0
- Ducksalad plant response rating [2, 24]: 0
- Ducksalad plant response rating [2, 25]: 0
- Wild oats plant response rating [3, 16]: 0
- Plant response rating, Wild oats [3, 17]: 3
- Wild oats plant response rating [3, 18]: 0
- Wild oats plant response rating [3, 19]: 0
- Wild oats plant response rating (0 to 10 scale) ([3]; Preemergence, Rate 250 g/ha): 0
- Wild oats plant response rating [3, 20]: 6
- Plant response rating, Wild oats [3, 21]: 0
- Blackgrass plant response rating [4, 16]: 0
- Blackgrass plant response rating [4, 26]: 0
- Plant response rating, Blackgrass [4, 17]: 7
- Blackgrass plant response rating [4, 18]: 0
- Blackgrass plant response rating [4, 19]: 0
- Blackgrass plant response rating (0 to 10 scale) ([4]; Preemergence, Rate 250 g/ha): 0
- Blackgrass plant response rating [4, 20]: 8
- Plant response rating, Blackgrass [4, 21]: 0
- Bedstraw plant response rating [5, 16]: 2
- Bedstraw plant response rating [5, 26]: 5
- Plant response rating, Bedstraw [5, 17]: 10
- Bedstraw plant response rating [5, 18]: 0
- Bedstraw plant response rating [5, 19]: 0
- Bedstraw plant response rating (0 to 10 scale) ([5]; Preemergence, Rate 250 g/ha): 0
- Bedstraw plant response rating [5, 20]: 8
- Plant response rating, Bedstraw [5, 21]: 10
- Plant response rating, S. Flatsedge (0 to 10 scale, 0 is no effect, 10 is complete control) [6, 22]: 0
- S. Flatsedge plant response rating (0 to 10 scale, 0 is no effect, 10 is complete control) [6, 23]: 0
- S. Flatsedge plant response rating [6, 24]: 0
- S. Flatsedge plant response rating [6, 25]: 0
- Giant foxtail plant response rating [7, 16]: 0
- Giant foxtail plant response rating [7, 26]: 3
- Plant response rating, Giant foxtail [7, 17]: 7
- Giant foxtail plant response rating [7, 18]: 9
- Giant foxtail plant response rating [7, 19]: 10
- Giant foxtail plant response rating (0 to 10 scale) ([7]; Preemergence, Rate 250 g/ha): 10
- Giant foxtail plant response rating [7, 20]: 10
- Plant response rating, Giant foxtail [7, 21]: 3
- Corn plant response rating [8, 16]: 0
- Corn plant response rating [8, 26]: 0
- Plant response rating, Corn [8, 17]: 0
- Corn plant response rating [8, 18]: 0
- Corn plant response rating [8, 19]: 0
- Corn plant response rating (0 to 10 scale) ([8]; Preemergence, Rate 250 g/ha): 0
- Corn plant response rating [8, 20]: 0
- Plant response rating, Corn [8, 21]: 0
- Soybean plant response rating [9, 16]: 2
- Plant response rating, Soybean [9, 17]: 3
- Soybean plant response rating [9, 18]: 0
- Soybean plant response rating [9, 19]: 0
- Soybean plant response rating (0 to 10 scale) ([9]; Preemergence, Rate 250 g/ha): 0
- Soybean plant response rating [9, 20]: 0
- Plant response rating, Soybean [9, 21]: 3
- Redroot pigweed plant response rating [10, 16]: 0
- Plant response rating, Redroot pigweed [10, 17]: 3
- Redroot pigweed plant response rating [10, 18]: 0
- Redroot pigweed plant response rating [10, 19]: 4
- Redroot pigweed plant response rating (0 to 10 scale) ([10]; Preemergence, Rate 250 g/ha): 4
- Redroot pigweed plant response rating [10, 20]: 4
- Plant response rating, Redroot pigweed [10, 21]: 0
- Crabgrass plant response rating [11, 16]: 3
- Crabgrass plant response rating [11, 26]: 9
- Plant response rating, Crabgrass [11, 17]: 9
- Crabgrass plant response rating [11, 18]: 9
- Crabgrass plant response rating [11, 19]: 9
- Crabgrass plant response rating (0 to 10 scale) ([11]; Preemergence, Rate 250 g/ha): 8
- Crabgrass plant response rating [11, 20]: 10
- Cocklebur plant response rating [12, 16]: 0
- Cocklebur plant response rating [12, 26]: 0
- Plant response rating, Cocklebur [12, 17]: 4
- Cocklebur plant response rating [12, 18]: 0
- Cocklebur plant response rating [12, 19]: 0
- Cocklebur plant response rating (0 to 10 scale) ([12]; Preemergence, Rate 250 g/ha): 0
- Cocklebur plant response rating [12, 20]: 0
- Plant response rating, Cocklebur [12, 21]: 2
- B. signalgrass plant response rating [13, 16]: 0
- B. signalgrass plant response rating [13, 26]: 0
- Plant response rating, B. signalgrass [13, 17]: 0
- B. signalgrass plant response rating [13, 18]: 4
- B. signalgrass plant response rating [13, 19]: 8
- B. signalgrass plant response rating [13, 20]: 9
- Plant response rating, B. signalgrass [13, 21]: 0
- Nutsedge plant response rating [14, 16]: 0
- Nutsedge plant response rating [14, 26]: 0
- Plant response rating, Nutsedge [14, 17]: 0
- Nutsedge plant response rating [14, 18]: 0
- Nutsedge plant response rating [14, 19]: 0
- Nutsedge plant response rating (0 to 10 scale) ([14]; Preemergence, Rate 250 g/ha): 0
- Nutsedge plant response rating [14, 20]: 0
- Plant response rating, Nutsedge [14, 21]: 0
- Morningglory plant response rating [15, 16]: 1
- Morningglory plant response rating [15, 26]: 1
- Plant response rating, Morningglory [15, 17]: 7
- Morningglory plant response rating [15, 18]: 0
- Morningglory plant response rating [15, 19]: 0
- Morningglory plant response rating (0 to 10 scale) ([15]; Preemergence, Rate 250 g/ha): 0
- Morningglory plant response rating [15, 20]: 0
- Plant response rating, Morningglory [15, 21]: 2
